Reference: PMC7221793, “Metabolism and Pharmacokinetics of SP-8356, a Novel (1S)-(−)-Verbenone Derivative, in Rats and Dogs and Its Implications in Humans” (Molecules, 2020)
Where two headings read alike, the source gives them in different places.

How the values were obtained:
[1] = system: mouse xenograft model of triple-negative breast cancer; design: method as in PMID 31036845; conditions: in mice ref 10; cited from earlier work
[2] = Pharmacokinetic studies in dogs (single i.v. and p.o. dose); assay type: in vivo; conditions: male, Beagle, dog, plasma, iv, 50 mg/kg
Procedure: Separation was performed on a Phenomenex Kinetex C18 column (2.1 mm × 50 mm, 2.6 µm) with 0.1 vol.% formic acid in water (A) and 0.1 vol.% formic acid in acetonitrile (B) as the mobile phase. The samples were analyzed in a linear gradient elution at a flow rate of 0.45 mL/min at 40 °C: starting with 5 vol.% B for 2 min, ramping to 95 vol.% B in 1 min, maintaining for 3 min and then returning to the initial condition. The injection volume was 5 µL. Ion source parameters were optimized as follows: capillary voltage, 3500 V; drying gas, 12 L/min and 345 °C; nebulizer gas, 35 psi; sheath gas, 11 L/min and 400 °C. Mass spectra were acquired in negative multiple reaction monitoring (MRM) mode at m/z (299 > 283) (F, 100 V; CE, 25 eV) and (253 > 143) (F, 100 V; CE, 30 eV) for SP-8356 and HSDH, respectively. The data were analyzed using Agilent MassHunter Quantitative Analysis software (version B.05.00). The retention times of SP-8356 and HSDH were (4.10 and 4.17) min, respectively. The linear calibration range of SP-8356 was (31.25–4000) ng/mL (r^2 > 0.99). The precision and accuracy of the assay were evaluated using quality control samples prepared in triplicate at (30, 300 and 3000) ng/mL as described in previous report. Both the accuracy and precision of this analytical method were within the acceptable ranges. Pharmacokinetic parameters were calculated by noncompartmental analysis using PKSolver.
Animal studies were conducted at KNOTUS Co., Ltd. (IACUC Approval No.: KNOTUS IACUC 18-KE-363; Approval date: 24 October 2018). SP-8356 dissolved in DMSO/ethanol/Solutol HS 15/deionized water (5/3/40/52 vol.%) was dosed i.v. or p.o. at 50 mg/kg (n = 6/dose group) to male Beagle dogs (11 months old; (11.6–12.4) kg; OrientBio Inc., Gyeonggi, Republic of Korea). Blood samples were collected at selected time points for 24 h post-dosing through jugular vein cannula into EDTA-treated tubes containing AA (final concentration: 0.4 w/v%). The blood samples were then centrifuged at 3000 rpm at 4 °C for 20 min. The separated plasma samples were kept frozen at −80 °C, until analysis. Sample and data analysis methods were the same as those described in Section 4.2.

[3] = In vivo metabolite identification, pooled rat plasma (Q-TOF LC-MS/MS); conditions: i.v. SP-8356 20 mg/kg
Procedure: (§1) Plasma samples from the i.v. administrations described in Section 4.2 and Section 4.3 were used in this study. Plasma samples pooled at each time point were subjected to sample preparation as described in Section 4.2. The prepared samples were analyzed by Agilent 6530 Q-TOF LC-MS/MS system equipped with dual AJS ESI ion source and Agilent 1200 series HPLC system as described below.
(§2) Chromatographic separation was achieved on an Agilent Eclipse C18 column (2.1 mm × 100 mm, 3.5 µm) by a gradient elution with a mobile phase consisting of 0.1 vol.% formic acid in water (A) and 0.1 vol.% formic acid in acetonitrile (B) at 50 °C: starting with 5 vol.% B for 2 min, ramping to 95 vol.% B over 1 min, maintaining for 3 min. The mobile phase flow rate was kept at 0.45 mL/min throughout the run. The sample injection volume was 5 µL. Ion source parameters were set as follows: capillary voltage, 3500 V; drying gas, 12 L/min and 300 °C; nebulizer gas, 30 psi; sheath gas, 12 L/min and 300 °C. Mass spectra were acquired in negative ion auto MS/MS mode (F, 135 V; CE, 25 eV) with full scan range of m/z (100–1000) and mass scan rate of 8 spectra/s. Metabolites were identified using Agilent MassHunter Metabolite ID software (version B.04.00) (Santa Clara, CA, USA). Chromatograms and mass spectra of the parent and identified metabolites were extracted using Agilent MassHunter Qualitative Analysis software (version B.05.00) (Santa Clara, CA, USA).

[4] = In vivo metabolite identification, pooled dog plasma (Q-TOF LC-MS/MS); conditions: i.v. SP-8356 50 mg/kg
Procedure: as §1, §2

[5] = design: method as in PMID 31036845; conditions: mice, intraperitoneal administration ref 10; cited from earlier work
[6] = Metabolic stability in dog liver S9 fraction; assay type: in vitro ADME
Procedure: The metabolic stability of SP-8356 was investigated using rat, dog and human liver S9 fractions fortified with cofactors for major drug metabolism. The final reaction mixture contained 1 mg/mL rat, dog or human liver S9 fraction, 1 mM cofactors (NADPH, UDPGA, PAPS, SAM and GSH), 2 mM MgCl2, 25 µg/mL alamethicin and 1 µM SP-8356 in final volume of 200 µL. The metabolic reactions were initiated by adding 10 mM cofactor solution to reaction mixtures preincubated for 5 min at 37 °C. The reactions were terminated at (0, 5, 15, 30 and 60) min by the addition of 200 µL ice-cold acetonitrile containing HSDH (1 µg/mL). The subsequent sample preparation and analytical methods were the same as those described in Section 4.5.
The degradation t1/2 of SP-8356 was calculated using the following Equation:(1) t1/2=0.693/k, where, k was the first-order rate constant calculated by one phase decay nonlinear regression using GraphPad Prism™ 7 (GraphPad Software, La Jolla, CA, USA). CLint was calculated using the following Equation:(2) CLint=k/fu,S9· mL incubation/mg liver S9· mg S9/g liver·g liver/kg body wt.
The scaling factors were (136, 120.7 and 120.7) mg S9 protein/g liver and (40, 32 and 26) g liver/kg body weight for rats, dogs and humans, respectively. For simplicity, the fraction unbound in S9 incubation (fu, S9) was assumed to be one. CLH was predicted using the hepatic well-stirred model, as follows:(3) CLH=QH·fu·CLint/QH+fu·CLint, where, QH was the hepatic blood flow of (55, 30 and 20) mL/min/kg for rats, dogs and humans, respectively. The fraction unbound (fu) was assumed to be one. EH was calculated using the following Equation:(4) EH=CLH/QH.

[7] = % versus total AUClast of parent and all detected metabolites
[8] = AR = peak area ratio versus internal standard

Vd ([2]; read-out: Vss): 1.3 ± 0.3 L/kg
Vd ([2]; read-out: Vz): 1.8 ± 0.3 L/kg
AUC(0-inf) [2]: 12400 ng·h/mL
AUC(0-t) [2]: 12400 ng·h/mL
clearance [2]: 66.7 mL/min/kg
AUClast (%) [3, 7]: 26.48%
AUClast (AR∙h) × 10^2 [3, 8]: 36.22 (AR∙h) × 10^2
AUClast (%) [4, 7]: 17.66%
AUClast (AR∙h) × 10^2 [4, 8]: 698.5 (AR∙h) × 10^2
half-life at 1 µM ([6]; Beagle, dog, liver S9 fraction, dog liver S9, −Cofactors, 1 μM): < 30 min
CLint scaled at 1 µM ([6]; Beagle, liver S9 fraction, dog liver S9, +Cofactors): 2430 mL/min/kg
t1/2 ([6]; dog liver S9, −Cofactors, 1 μM): 20.7 min
CLH ([6]; dog, +Cofactors, predicted by well-stirred model): 29.6 mL/min/kg
Compound: COc1cc(/C=C/C2=CC(=O)[C@H]3C[C@@H]2C3(C)C)cc(O)c1O [SP-8356, (1S,5R)-4-((E)-3,4-dihydroxy-5-methoxystryryl)-6,6-dimethylbicylco[3.1.1]hept-3-en-2-one]
anti-breast cancer activity [1]: potent anti-breast cancer effect
plasma exposure [5]: Low plasma exposure
